Measured values as given in ChEMBL document CHEMBL1126336, “Benzopyranyl-cyanoguanidine potassium channel openers” (Bioorg Med Chem Lett, 1992).

Key:
Format in all cases: functional
[1] = species: Rattus norvegicus; experiment: Vasorelaxant potency required to relax methoxamine contracted male Wistar Kyoto rat thoracic aorta
[2] = tested on: Rattus norvegicus; experiment: Antihypertensive activity expressed as percent maximum decrease in blood pressure at 45 umol/kg for 0-6 hrs in male spontaneously hypertensive rats when administered perorally
[3] = tested on: Rattus norvegicus; experiment: Antihypertensive activity expressed as percent maximum decrease in blood pressure at 45 umol/kg for 6-12 hrs in male spontaneously hypertensive rats when administered perorally
[4] = tested on: Rattus norvegicus; experiment: Antihypertensive activity expressed as percent maximum decrease in blood pressure at 45 umol/kg for 12-18 hrs in male spontaneously hypertensive rats when administered perorally
[5] = tested on: Rattus norvegicus; experiment: Antihypertensive activity expressed as percent maximum decrease in blood pressure at 45 umol/kg for 18-24 hrs in male spontaneously hypertensive rats when administered perorally

| SMILES | IC50 [1] [nM] | also measured |
| --- | --- | --- |
| CC1(C)Oc2ccc(C#N)cc2[C@@H](/N=C(\NC#N)N2CCN(Cc3ccccc3)CC2)[C@@H]1O | 13100 |  |
| CN(C)CC/N=C(/NC#N)N[C@@H]1c2cc(C#N)ccc2OC(C)(C)[C@H]1O | > 100000 |  |
| CCC(C)(C)/N=C(\NC#N)N[C@@H]1c2cc(C#N)ccc2OC(C)(C)[C@H]1O | 29800 |  |
| COCC/N=C(/NC#N)N[C@@H]1c2cc(C#N)ccc2OC(C)(C)[C@H]1O | 1690 |  |
| CC(C)/N=C(/NC#N)N[C@@H]1c2cc(C#N)ccc2OC(C)(C)[C@H]1O | 660 |  |
| CC1(C)Oc2ccc(C#N)cc2[C@@H](N2CCCC2=O)[C@@H]1O [CROMAKALIM] |  | Max decrease [2]: 63%; Max decrease [3]: 35%; Max decrease [4]: 37%; Max decrease [5]: 42% |
| CC(N/C(=N\C#N)Nc1ccncc1)C(C)(C)C (centres undefined) [PINACIDIL ANHYDROUS] |  | Max decrease [2]: 40%; Max decrease [3]: 21%; Max decrease [4]: 23%; Max decrease [5]: 14% |

Further compounds by falling IC50 [1], results first:

| IC50 [1] [nM] | SMILES | also measured |
| --- | --- | --- |
| 490 | CN(C)/C(=N/[C@@H]1c2cc(C#N)ccc2OC(C)(C)[C@H]1O)NC#N |  |
| 470 | CC1(C)Oc2ccc(C#N)cc2[C@@H](N2CCN=C2NC#N)[C@@H]1O |  |
| 380 | CC/N=C(/NC#N)N[C@@H]1c2cc(C#N)ccc2OC(C)(C)[C@H]1O |  |
| 320 | CC1(C)Oc2ccc(C#N)cc2[C@@H](/N=C(/N)NC#N)[C@@H]1O |  |
| 200 | C/N=C(\NC#N)N[C@@H]1c2cc(C#N)ccc2OC(C)(C)[C@H]1O | Max decrease [2]: 46%; Max decrease [3]: 44%; Max decrease [4]: 23%; Max decrease [5]: 15% |
| 120 | CC1(C)Oc2ccc(C#N)cc2[C@@H](N2CCCN=C2NC#N)[C@@H]1O |  |
| 34 | CC1(C)Oc2ccc(C#N)cc2[C@@H](/N=C(\NC#N)N2CCCC2)[C@@H]1O |  |
